Structures are written as SMILES. Like-named read-outs stand apart in the source and are kept apart here.

Data set [1] can be described thus: changing rate of blood pressure and heart rate by intravenous injection in anesthetized rats. To be noted: Rattus norvegicus, 1 (mg/kg). The data set is classed as in vivo, Wister male rats. As for the experimental part:
(blood pressure, heart rate increasing action by intravenous injection) Wister male rats (8 weeks old) were used as test animals. The rats were applied to anesthesia by intraperitoneal administration with 1.25 g/kg of urethane. The blood pressure was determined by inserting a polyethylene tube into a femoral artery, which was connected with a pressure transducer. The heart rate was determined from R wave of electrocardiograms (ECG) induced by standard limb lead II with a tachometer. Each test compound was dissolved in ethanol and intravenously administered to rats in 1 mg/kg diluted with Ringer's solution just before use. The maximum concentration of ethanol was 2 percent. An ethanol-containing Ringer without any test compound was used as a control to confirm the influence of the ethanol in each experiment. Each changing rate (%) in the blood pressure and heart rate before and after administration was determined, and the average of 3-4 experiments was shown in Table 1. Changing rates of blood pressure and heart rate were determined in the same manner as described in Example 1 except that the test compounds 60, 61 and 62 were used in different concentrations instead of the test compounds 1-55.

A short description of another data set: acute toxicity LD50. Type of data set: in vivo.
A short description of data set [2]: progressing a breath (change rate of breath rate). The following applies: Rattus norvegicus, iv, tail vein, rats. The data set is classed as in vivo, Wister male rats. As for the experimental part:
Wister male rats (8 weeks old) were applied to anesthesia by intraperitoneal administration with 1.25 g/kg of urethane. A pick-up for breath was fixed on a top of a rat's nose, and the breath curve was recorded on a polygraph while the breath rate was counted with a tachometer.
Each test compound was dissolved in ethanol and administered to rats through a tale vein in 1 mg/kg as diluted with Ringer's solution just before use. The maximum concentration of ethanol was 2 percent. Ringers solution containing ethanol but not containing test compound was administered at every experiment as a control. The change rates (%) of the breath rate before and after administration were determined, and evaluated as progressing activity of breath.

The nature of data set [3]: recovery of blood pressure and heart rate of rats in hemorrhage shock. Type of data set: in vivo, Wister male rats. The following applies: intravenous, dehematized rats. How it is done:
(Recovery of blood pressure and heart rate of rats in hemorrhage shock)
Wister male rats (8 weeks old) were applied to anesthesia by subcutaneous injection with 1.5 g/kg of urethane. The blood pressure and heart rate were determined according to the same manner as in Example 1.
The rats were kept for 60 minutes in a room after a blood corresponding to 1.5% of the weight was removed.
13,14-dihydro-6,15-diketo-19-methyl-PGE1 ethyl ester (compound number 15) was dissolved in Ringer's solution (0.1 ml), and the solution was intravenously administered into the above dehematized rat. Ringer's solution was administered to a control group.
The recovery rates of the blood pressure and heart rate were obtained assuming the value at 60 minutes after dehematizing being 0% and the value before dehematizing being 100% respectively. In these FIGS. (1), (2) and (3) represent a dose of 1 mg/kg, dose of 0.5 mg/kg and control respectively.
The same procedure as the above except that the compounds of (7), (18) and (22) were used instead of the compound (15) was applied, and the effects are observed, the results of which are also shown in Table 3.

Data set [4] can be described thus: changes in blood flow rate in carotid, blood pressure and heart rate. The data set is classed as in vivo, Wister male rats. The following applies: 1 mg/kg, femoral artery, 4 experiments. How it is done: Wister male rats (9 weeks old) were used.
The rats were applied to anesthesia by intraperitoneal administration with 1.25 g/kg of urethane. The blood flow rate in carotid was determined by a stromuhr. The blood pressure and heart rate were determined according to the same manner as in Example 1.
13,14-dihydro-6,15-diketo-19-methyl-PGE1 ethyl ester (sample number: 15) was dissolved in a small amount of ethanol, and then diluted with Ringer's solution more than 50 times. About 0.1 ml (1 mg drag/kg rat) of the diluted solution was administered to a rat through a polyethylene tube inserted into a femoral artery. The changes in blood flow rate (BF), blood pressure (BP), heart rate (HR) were observed, and the average of 4 experiments were shown in FIG. 1.

Setting [5] is: Table 1, read-out: changing rate of blood pressure.
Setting [6] is: Table 1, read-out: changing rate of heart rate.
Where [7] appears, read: mouse, in vivo, PO, male mice, read-out: LD50.
Setting [8] is: mouse, in vivo, IV, male mice, read-out: LD50.
The mark [9] stands for this setting: mouse, in vivo, IP, male mice, read-out: LD50.

In the case of `CCCCC(F)C(=O)CC[C@H]1[C@H](O)CC(=O)[C@@H]1C/C=C\CCCC(=O)OC` (stereo partly drawn) [Compound 37, 13,14-dihydro-15-keto-16R,S-fluoro-PGE2 methyl ester], the change in vivo at 1 mg/kg is 56% in data set [1] (setting [5]) and 33% in data set [1] (setting [6]). The LD50 in “acute toxicity LD50” (setting [7]) was above 500 mg/kg.

With `CCCCCC(=O)CC[C@H]1[C@H](O)CC(=O)[C@@H]1C/C=C\CCCC(=O)OC` [Compound 21, 13,14-dihydro-15-keto-PGE2 methyl ester], the change in vivo at 1 mg/kg in data set [2] was determined as 29%; in data set [1] (setting [5]), 18%; in data set [1] (setting [6]), 35%. The LD50 in “acute toxicity LD50” (setting [8]) was above 1000 mg/kg.

As to `CCCCCC(=O)CC[C@H]1[C@H](O)CC(=O)[C@@H]1C/C=C\CCCC(=O)OCC` [Compound 22, 13,14-dihydro-15-keto-PGE2 ethyl ester], the “recovering of blood pressure %” value in data set [3] (0.5 mg/kg) is reported as 32%; in data set [3] (1.0 mg/kg), 74%. The entries for the “recovering of heart rate %” value in data set [3] (0.5 mg/kg) and in data set [3] (1.0 mg/kg) were 50% and 63%, respectively. For the same compound, the results for the change in vivo at 1 mg/kg in data set [2], in data set [1] (setting [5]) and in data set [1] (setting [6]) were 28%, 5% and 11%, respectively. For the same compound, the LD50 was above 500 mg/kg in “acute toxicity LD50” (IP, female mice); above 4000 mg/kg in “acute toxicity LD50” (PO, female mice); above 1000 mg/kg in the data set “acute toxicity LD50” (SC, female mice); above 500 mg/kg in “acute toxicity LD50” (setting [9]); above 4000 mg/kg in “acute toxicity LD50” (setting [7]); above 1000 mg/kg in the data set “acute toxicity LD50” (mouse, in vivo, SC, male mice, read-out: LD50).

As for `CCCCC(F)C(=O)CC[C@H]1[C@H](O)CC(=O)[C@@H]1C/C=C\CCCC(=O)O` (stereo partly drawn) [Compound 36, 13,14-dihydro-15-keto-16R,S-fluoro-PGE2], the change in vivo at 1 mg/kg in data set [1] (setting [5]) was found to be 33%; in data set [1] (setting [6]), 32%. Further, in the data set “acute toxicity LD50” (setting [7]), the LD50 was above 500 mg/kg.

Turning to `CCOC(=O)CCCCC(=O)C[C@H]1C(=O)C[C@@H](O)[C@@H]1CCC(=O)CCCC(C)C` [Compound 15, 13,14-dihydro-6,15-diketo-19-methyl-PGE1 ethyl ester], the “recovering of blood pressure %” value in data set [3] (0.5 mg/kg) is 39%; in data set [3] (1.0 mg/kg) it was 68%. Also, the figures for the “recovering of heart rate %” value in data set [3] (0.5 mg/kg) and in data set [3] (1.0 mg/kg) were 62% and 100%, respectively. The change in vivo at 1 mg/kg was 26% in data set [2], 12% in data set [1] (setting [5]) and 19% in data set [1] (setting [6]). Moreover, the LD50 in the data set “acute toxicity LD50” (setting [8]) was above 300 mg/kg. Further, the “change in blood flow rate (BF) in carotid” value in data set [4] (FIG. 1a) is on record as “extremely increase”. The “change in blood pressure (BP)” value in data set [4] (FIG. 1b) was “extremely increase”. In data set [4] (FIG. 1c), the “change in heart rate (HR)” value was “extremely increase”.

As to `CCCCCC(=O)CC[C@H]1[C@H](O)CC(=O)[C@@H]1CC(=O)CCCCC(=O)OCC` [Compound 7, 13,14-dihydro-6,15-diketo-PGE1 ethyl ester], the “recovering of blood pressure %” value in data set [3] (0.5 mg/kg) is 38%; in data set [3] (1.0 mg/kg), 63%. The “recovering of heart rate %” value came out at 46% in data set [3] (0.5 mg/kg) and 62% in data set [3] (1.0 mg/kg). Moreover, the change in vivo at 1 mg/kg is 31% in data set [2] and 5% in data set [1] (setting [5]).

As for `CCCCCC(=O)CC[C@H]1[C@H](C)CC(=O)[C@@H]1CC(=O)CCCCC(=O)OCC` [Compound 18, 13,14-dihydro-6,15-diketo-11-dehydroxy-11R-methyl-PGE1 ethyl ester], the “recovering of blood pressure %” value in data set [3] (0.5 mg/kg) was 87%; in data set [3] (1.0 mg/kg), 119%. In addition, the “recovering of heart rate %” value in data set [3] (0.5 mg/kg) and in data set [3] (1.0 mg/kg) was 100% throughout. The change in vivo at 1 mg/kg in data set [2] turned out to be 28%; in data set [1] (setting [5]), 18%; in data set [1] (setting [6]) it was 17%.

For the compound `CCCCCC(=O)CC[C@H]1[C@H](O)CC(=O)[C@@H]1CCCCCCC(=O)OCC` [Compound 2, 13,14-dihydro-15-keto-PGE1 ethyl ester], the change in vivo at 1 mg/kg in data set [2] was determined as 47%; in data set [1] (setting [5]), 1%; in data set [1] (setting [6]) it was 20%. In addition, the 50% lethal dose (LD50) in “acute toxicity LD50” (setting [9]) is above 1000 mg/kg.

These data come from patent US5169863A, “Hypersphyxia-causing methods” (K.K. Ueno Seiyaku Oyo Kenkyujo, priority 1988, dated 1992).
